Data reported in publication PMC5691623 (Viruses, 2017).

Test system: SFV vector VA7-mCherry
Test: Live microscopy of SFV infection in Pa02C pancreatic cancer cells
Type: cell-based, Semliki Forest virus
Conditions: 1 µM, low moi (0.01), 96 h

CC1(C)CCC(c2ccc(Cl)cc2)=C(CN2CCN(c3ccc(C(=O)NS(=O)(=O)c4ccc(N[C@H](CCN5CCOCC5)CSc5ccccc5)c(S(=O)(=O)C(F)(F)F)c4)cc3)CC2)C1 [ABT-263]
effect on replication and spread of SFV: attenuated the replication and spread of the virus
